Experimental data taken from patent US10131648B2, “Substituted benzothiophenyl derivatives as GPR40 agonists for the treatment of type II diabetes” (Janssen Pharmaceutica NV, priority 2014, dated 2018).
pEC50: −log10 of the molar value.

Molecular target: human GPR40 (Homo sapiens (Human), UniProt O14842)
Assay: GPR40 Calcium Flux Assay
Assay type: cell-based
Conditions: transfected HEK293 cells stably expressing human GPR40; Ca2+ mobilization; mean data; read-out: hGPR40 Ca^2+ Assay EC50
Method: Compounds were tested in a calcium flux assay using transfected HEK293 cells stably expressing either human GPR40 or rat GPR40. Human GPR40 expressing cells were cultured in DMEM-High Glucose media supplemented with 10% fetal bovine serum, 1×L-Glutamine, 1×Penicillin/Streptomycin and 500 μg/mL G418. Rat GPR40 expressing cells were cultured in DMEM-High Glucose media supplemented with 10% fetal bovine serum and 1 μg/mL puromycin. Cells were plated into poly-D-lysine coated 384-well plates and cultured overnight in a 37° C. humidified tissue culture incubator under 5% CO2/[…] atmosphere. On the day of the experiment, the culture media was replaced with assay buffer (HBSS, 20 mM HEPES, 0.1% BSA) and the cells incubated at 37° C. for 1 h. Calcium-sensitive fluorescent dye (Fluo 8 No-Wash Calcium Dye, ABD Bioquest) was then added and the cells incubated for another 30 min at 37° C. followed by 15 min at room temperature while protected from the light. The cell plate and a plate of diluted compounds of Formula (I) were loaded into a fluorescent plate reader that added compounds onto the cells while measuring the fluorescence intensity of each well. The plate reader recorded fluorescence intensity at 1 second intervals for 8 min and provided the data for analysis in an Excel format. EC50 values were calculated using Prism (GraphPad) software.

Sequence of human GPR40 (O14842 whole entry): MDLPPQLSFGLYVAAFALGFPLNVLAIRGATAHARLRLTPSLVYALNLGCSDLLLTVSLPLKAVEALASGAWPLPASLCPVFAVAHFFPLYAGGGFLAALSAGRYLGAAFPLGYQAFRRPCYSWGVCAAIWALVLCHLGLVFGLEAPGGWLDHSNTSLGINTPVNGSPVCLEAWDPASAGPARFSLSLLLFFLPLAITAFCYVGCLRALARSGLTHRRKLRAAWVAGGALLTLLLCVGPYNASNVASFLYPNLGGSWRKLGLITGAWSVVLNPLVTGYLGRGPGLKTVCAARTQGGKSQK

Structure (SMILES) | pEC50
Cc1ccccc1-c1csc2ccc(COc3ccc(CCC(=O)O)cc3)cc12 [Cpd 1, 3-[4-[[3-(2-Methylphenyl)benzo[b]thiophen-5-yl]methoxy]phenyl]propanoic acid] | 8.15
CC#C[C@@H](CC(=O)O)c1ccc(OCc2ccc3scc(-c4ccc(OCC5(O)CCS(=O)(=O)CC5)cc4C)c3c2)cc1 [Cpd 3, (3S)-3-[4-[[3-[4-[(4-Hydroxy-1,1-dioxo-thian-4-yl)methoxy]-2-methyl-phenyl]benzo[b]thiophen-5-yl]methoxy]phenyl]hex-4-ynoic acid] | 8.30
CC#C[C@@H](CC(=O)O)c1ccc(OCc2ccc3scc(-c4ccc(OCCCS(C)(=O)=O)cc4C)c3c2)cc1 [Cpd 4, (3S)-3-[4-[[3-[2-Methyl-4-(3-methylsulfonylpropoxy)phenyl]benzo[b]thiophen-5-yl]methoxy]phenyl]hex-4-ynoic acid] | 8.52
CC#C[C@@H](CC(=O)O)c1ccc(OCc2ccc3scc(-c4ccc(C(=O)N5CCS(=O)(=O)CC5)cc4C)c3c2)cc1 [Cpd 5, (3S)-3-[4-[[3-[4-(1,1-Dioxo-1,4-thiazinane-4-carbonyl)-2-methyl-phenyl]benzo[b]thiophen-5-yl]methoxy]phenyl]hex-4-ynoic acid] | 7.64
CC#C[C@@H](CC(=O)O)c1ccc(OCc2ccc3scc(-c4ccc(C5=CCS(=O)(=O)CC5)cc4C)c3c2)cc1 [Cpd 6, (3S)-3-[4-[[3-[4-(1,1-Dioxo-3,6-dihydro-2H-thiopyran-4-yl)-2-methyl-phenyl]benzo[b]thiophen-5-yl]methoxy]phenyl]hex-4-ynoic acid] | 7.82
CC#C[C@@H](CC(=O)O)c1ccc(OCc2ccc3scc(-c4ccc(O)cc4C)c3c2)cc1 [Cpd 7, (3S)-3-[4-[[3-(4-Hydroxy-2-methyl-phenyl)benzo[b]thiophen-5-yl]methoxy]phenyl]hex-4-ynoic acid] | 8.15
CC#C[C@@H](CC(=O)O)c1ccc(OCc2ccc3scc(-c4ccc(C5CCS(=O)(=O)CC5)cc4C)c3c2)cc1 [Cpd 8, (3S)-3-[4-[[3-[4-(1,1-Dioxothian-4-yl)-2-methyl-phenyl]benzo[b]thiophen-5-yl]methoxy]phenyl]hex-4-ynoic acid] | 7.70
CC#C[C@@H](CC(=O)O)c1ccc(OCc2ccc3sc(C)c(-c4ccc(OC5CCS(=O)(=O)CC5)cc4C)c3c2)cc1 [Cpd 9, (3S)-3-[4-[[3-[4-(1,1-Dioxothian-4-yl)oxy-2-methyl-phenyl]-2-methyl-benzo[b]thiophen-5-yl]methoxy]phenyl]hex-4-ynoic acid] | 7.77
CC#C[C@@H](CC(=O)O)c1ccc(OCc2ccc3scc(-c4c(C)cccc4C)c3c2)cc1 [Cpd 10, (3S)-3-[4-[[3-(2,6-Dimethylphenyl)benzo[b]thiophen-5-yl]methoxy]phenyl]hex-4-ynoic acid] | 7.39
CC#C[C@@H](CC(=O)O)c1ccc(OCc2ccc3scc(-c4ccc(OCCC5(O)CC5)cc4C)c3c2)cc1 [Cpd 11, (3S)-3-(4-((3-(4-(2-(1-Hydroxycyclopropyl)ethoxy)-2-methylphenyl)benzo[b]thiophen-5-yl)methoxy)phenyl)hex-4-ynoic acid] | 7.80
CC#C[C@@H](CC(=O)O)c1ccc(OCc2ccc3scc(-c4ccc(OCCC(C)(C)O)cc4C)c3c2)cc1 [Cpd 12, (3S)-3-(4-((3-(4-(3-Hydroxy-3-methylbutoxy)-2-methylphenyl)benzo[b]thiophen-5-yl)methoxy)phenyl)hex-4-ynoic acid] | 8.05
CC#C[C@@H](CC(=O)O)c1ccc(OCc2ccc3scc(-c4ccc(OCC(O)CO)cc4C)c3c2)cc1 (stereo partly drawn) [Cpd 13, (3S)-3-(4-((3-(4-(2,3-Dihydroxypropoxy)-2-methylphenyl)benzo[b]thiophen-5-yl)methoxy)phenyl)hex-4-ynoic acid] | 8.15
CC#C[C@@H](CC(=O)O)c1ccc(OCc2ccc3scc(-c4ccc(OCC5(C)COC5)cc4C)c3c2)cc1 [Cpd 14, (3S)-3-(4-((3-(2-Methyl-4-((3-methyloxetan-3-yl)methoxy)phenyl)benzo[b]thiophen-5-yl)methoxy)phenyl)hex-4-ynoic acid] | 8.05
CC#C[C@@H](CC(=O)O)c1ccc(OCc2ccc3scc(-c4ccc(OC5CCOCC5)cc4C)c3c2)cc1 [Cpd 15, (3S)-3-(4-((3-(2-Methyl-4-((tetrahydro-2H-pyran-4-yl)oxy)phenyl)benzo[b]thiophen-5-yl)methoxy)phenyl)hex-4-ynoic acid] | 8.70
CC#C[C@@H](CC(=O)O)c1ccc(OCc2ccc3scc(-c4ccc(OCC5CCS(=O)(=O)CC5)cc4C)c3c2)cc1 [Cpd 17, (3S)-3-(4-((3-(4-((1,1-Dioxidotetrahydro-2H-thiopyran-4-yl)methoxy)-2-methylphenyl)benzo[b]thiophen-5-yl)methoxy)phenyl)hex-4-ynoic acid] | 8.22
CC#C[C@@H](CC(=O)O)c1ccc(OCc2ccc3scc(-c4ccc(OCC5(C)CS(=O)(=O)C5)cc4C)c3c2)cc1 [Cpd 18, (3S)-3-(4-((3-(2-Methyl-4-((3-methyl-1,1-dioxidothietan-3-yl)methoxy)phenyl)benzo[b]thiophen-5-yl)methoxy)phenyl)hex-4-ynoic acid] | 7.96
CC#C[C@@H](CC(=O)O)c1ccc(OCc2ccc3scc(-c4ccccc4Cl)c3c2)cc1 [Cpd 19, (3S)-3-(4-((3-(2-Chlorophenyl)benzo[b]thiophen-5-yl)methoxy)phenyl)hex-4-ynoic acid] | 8.10
CC#C[C@@H](CC(=O)O)c1ccc(OCc2ccc3scc(-c4ccccc4Br)c3c2)cc1 [Cpd 20, (3S)-3-(4-((3-(2-Bromophenyl)benzo[b]thiophen-5-yl)methoxy)phenyl)hex-4-ynoic acid] | 8.30
CC#C[C@@H](CC(=O)O)c1ccc(OCc2ccc3scc(-c4ccccc4C(F)(F)F)c3c2)cc1 [Cpd 21, (3S)-3-(4-((3-(2-(Trifluoromethyl)phenyl)benzo[b]thiophen-5-yl)methoxy)phenyl)hex-4-ynoic acid] | 8.10
CC#C[C@@H](CC(=O)O)c1ccc(OCc2ccc3scc(-c4cccnc4C)c3c2)cc1 [Cpd 22, (3S)-3-(4-((3-(2-Methylpyridin-3-yl)benzo[b]thiophen-5-yl)methoxy)phenyl)hex-4-ynoic acid] | 8.10
CC#C[C@@H](CC(=O)O)c1ccc(COc2ccc3scc(-c4ccccc4C)c3c2)cc1 [Cpd 23, (3S)-3-(4-(((3-(2-Methylphenyl)benzo[b]thiophen-5-yl)oxy)methyl)phenyl)hex-4-ynoic acid] | 8.00
CC#C[C@@H](CC(=O)O)c1ccc(COc2ccc3scc(-c4ccc(OCCCS(C)(=O)=O)cc4C)c3c2)cc1 [Cpd 24, (3S)-3-(4-(((3-(2-Methyl-4-(3-(methylsulfonyl)propoxy)phenyl)benzo[b]thiophen-5-yl)oxy)methyl)phenyl)hex-4-ynoic acid] | 8.05
CC#C[C@@H](CC(=O)O)c1ccc(COc2ccc3scc(-c4ccc(C5=CCS(=O)(=O)CC5)cc4C)c3c2)cc1 [Cpd 25, (3S)-3-(4-(((3-(4-(1,1-Dioxido-3,6-dihydro-2H-thiopyran-4-yl)-2-methylphenyl)benzo[b]thiophen-5-yl)oxy)methyl)phenyl)hex-4-ynoic acid] | 7.62
CC#C[C@@H](CC(=O)O)c1ccc(COc2ccc3scc(-c4ccc(C5CCS(=O)(=O)CC5)cc4C)c3c2)cc1 [Cpd 26, (3S)-3-(4-(((3-(4-(1,1-Dioxidotetrahydro-2H-thiopyran-4-yl)-2-methylphenyl)benzo[b]thiophen-5-yl)oxy)methyl)phenyl)hex-4-ynoic acid] | 7.74
CC#C[C@@H](CC(=O)O)c1ccc(COc2ccc3scc(-c4c(C)cccc4C)c3c2)cc1 [Cpd 27, (3S)-3-(4-(((3-(2,6-Dimethylphenyl)benzo[b]thiophen-5-yl)oxy)methyl)phenyl)hex-4-ynoic acid] | 7.70
Cc1cc(C2=CCS(=O)(=O)CC2)ccc1-c1csc2ccc(COc3ccc(C4(CC(=O)O)CC(=O)C4)cc3)cc12 [Cpd 28, 2-(1-(4-((3-(4-(1,1-Dioxido-3,6-dihydro-2H-thiopyran-4-yl)-2-methylphenyl)benzo[b]thiophen-5-yl)methoxy)phenyl)-3-oxocyclobutyl)acetic acid] | 7.92
Cc1cc(C2CCS(=O)(=O)CC2)ccc1-c1csc2ccc(COc3ccc(C4(CC(=O)O)CC(=O)C4)cc3)cc12 [Cpd 29, 2-(1-(4-((3-(4-(1,1-Dioxidotetrahydro-2H-thiopyran-4-yl)-2-methylphenyl)benzo[b]thiophen-5-yl)methoxy)phenyl)-3-oxocyclobutyl)acetic acid] | 7.47
Cc1ccccc1-c1csc2ccc(COc3ccc(C4(CC(=O)O)CC(=O)C4)cc3)cc12 [Cpd 30, 2-(3-Oxo-1-(4-((3-(2-methylphenyl)benzo[b]thiophen-5-yl)methoxy)phenyl)cyclobutyl)acetic acid] | 8.22
Cc1ccccc1-c1csc2ccc(COc3ccc([C@]4(CC(=O)O)C[C@@H](O)C4)cc3)cc12 [Cpd 31] | 7.32
CCOCCOc1ccc(-c2csc3ccc(COc4ccc(C5(CC(=O)O)CC(=O)C5)cc4)cc23)c(C)c1 [Cpd 32, 2-(1-(4-((3-(4-(2-Ethoxyethoxy)-2-methylphenyl)benzo[b]thiophen-5-yl)methoxy)phenyl)-3-oxocyclobutyl)acetic acid] | 7.44
